Source: BindingDB's records for doi:10.1021/jm050267e (Johnson & Johnson Pharmaceutical, 2005)

How the values were obtained:
Test in all cases: Kinase Inhibition Assay
[1] = target: Cyclin-dependent kinase 4/G1/S-specific cyclin-D1 (Mus musculus, UniProt P30285)
Experimental: (§1) The enzyme was assayed with a biotinylated peptide substrate and test compounds in the presence of 10 uM ATP/[gamma-33P]ATP in a streptavidin coated FlashPlate (Perkin-Elmer, Boston, MA). Inhibition of the enzymatic activity due to the compound was measured by observing a reduced amount of 33P-gamma-ATP incorporated into the immobilized peptide relative to untreated controls. Linear regression analysis of the percent of inhibition by the test compound was used to calculate IC50 values.

[2] = target: Cyclin-A2/Cyclin-dependent kinase 2 (Homo sapiens, UniProt P24941)
Experimental: as §1

[3] = target: Cyclin-dependent kinase/G2/mitotic-specific cyclin- 1 (Homo sapiens, UniProt P06493); details: pH 8; 30 °C
Experimental: as §1

[4] = target: Vascular endothelial growth factor receptor 2 (Rattus norvegicus, UniProt O08775)
Experimental: as §1

Cyclin-dependent kinase/G2/mitotic-specific cyclin- 1, sequence (P06493 whole entry): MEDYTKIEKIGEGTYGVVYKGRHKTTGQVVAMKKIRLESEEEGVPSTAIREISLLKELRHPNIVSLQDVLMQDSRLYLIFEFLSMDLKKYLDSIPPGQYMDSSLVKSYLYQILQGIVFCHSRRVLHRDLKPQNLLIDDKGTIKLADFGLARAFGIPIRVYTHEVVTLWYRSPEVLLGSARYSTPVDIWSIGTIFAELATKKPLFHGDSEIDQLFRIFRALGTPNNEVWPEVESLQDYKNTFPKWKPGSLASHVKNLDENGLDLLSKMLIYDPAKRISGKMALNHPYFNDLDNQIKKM
Cyclin-dependent kinase/G2/mitotic-specific cyclin- 1, sequence (P14635 whole entry, further chain): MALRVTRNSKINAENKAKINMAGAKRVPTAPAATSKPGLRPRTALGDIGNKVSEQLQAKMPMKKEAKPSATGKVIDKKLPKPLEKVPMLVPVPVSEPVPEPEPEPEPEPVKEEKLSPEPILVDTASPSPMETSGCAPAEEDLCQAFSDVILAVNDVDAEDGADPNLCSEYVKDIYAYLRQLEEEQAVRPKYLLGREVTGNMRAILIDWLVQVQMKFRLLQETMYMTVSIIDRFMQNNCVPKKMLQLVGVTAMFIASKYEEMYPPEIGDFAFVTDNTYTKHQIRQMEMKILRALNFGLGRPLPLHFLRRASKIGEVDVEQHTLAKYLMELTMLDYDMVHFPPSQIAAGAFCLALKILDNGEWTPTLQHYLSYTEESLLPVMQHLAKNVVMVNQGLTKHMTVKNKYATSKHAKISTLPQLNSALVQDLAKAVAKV
Vascular endothelial growth factor receptor 2, sequence (O08775 whole entry): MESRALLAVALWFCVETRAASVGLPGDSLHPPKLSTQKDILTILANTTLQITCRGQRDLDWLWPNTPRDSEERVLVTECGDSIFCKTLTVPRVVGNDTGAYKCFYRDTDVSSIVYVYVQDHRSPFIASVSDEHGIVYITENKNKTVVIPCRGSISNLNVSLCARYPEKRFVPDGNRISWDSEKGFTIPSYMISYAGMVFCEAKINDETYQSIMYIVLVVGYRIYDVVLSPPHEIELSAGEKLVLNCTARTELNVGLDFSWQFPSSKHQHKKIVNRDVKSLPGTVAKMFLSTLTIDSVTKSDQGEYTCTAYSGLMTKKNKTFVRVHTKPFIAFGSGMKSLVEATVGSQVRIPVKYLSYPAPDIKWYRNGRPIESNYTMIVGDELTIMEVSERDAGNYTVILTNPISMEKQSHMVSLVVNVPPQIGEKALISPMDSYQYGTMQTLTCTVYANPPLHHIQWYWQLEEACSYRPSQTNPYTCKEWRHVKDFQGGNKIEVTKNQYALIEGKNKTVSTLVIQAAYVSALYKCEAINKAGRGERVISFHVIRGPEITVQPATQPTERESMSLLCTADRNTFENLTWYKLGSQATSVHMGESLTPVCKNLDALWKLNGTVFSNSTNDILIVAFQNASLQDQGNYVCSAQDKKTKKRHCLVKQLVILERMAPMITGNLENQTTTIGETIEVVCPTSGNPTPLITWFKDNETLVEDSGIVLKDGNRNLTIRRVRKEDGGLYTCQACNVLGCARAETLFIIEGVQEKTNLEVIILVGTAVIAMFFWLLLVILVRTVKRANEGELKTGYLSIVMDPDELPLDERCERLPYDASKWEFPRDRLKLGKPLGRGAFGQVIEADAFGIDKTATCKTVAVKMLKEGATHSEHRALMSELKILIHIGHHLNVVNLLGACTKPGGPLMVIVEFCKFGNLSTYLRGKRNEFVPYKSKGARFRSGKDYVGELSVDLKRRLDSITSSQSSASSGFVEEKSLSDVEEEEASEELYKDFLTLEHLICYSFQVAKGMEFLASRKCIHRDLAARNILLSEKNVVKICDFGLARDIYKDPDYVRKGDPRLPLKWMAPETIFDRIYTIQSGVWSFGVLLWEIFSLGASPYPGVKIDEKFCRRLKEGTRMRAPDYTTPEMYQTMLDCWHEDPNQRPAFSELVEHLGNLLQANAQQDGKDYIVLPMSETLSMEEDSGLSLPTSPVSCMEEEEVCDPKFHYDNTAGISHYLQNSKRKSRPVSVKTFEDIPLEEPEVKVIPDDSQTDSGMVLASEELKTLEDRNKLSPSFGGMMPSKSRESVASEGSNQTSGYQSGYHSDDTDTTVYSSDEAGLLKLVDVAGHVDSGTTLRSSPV
Cyclin-dependent kinase 4/G1/S-specific cyclin-D1, sequence (P25322 whole entry): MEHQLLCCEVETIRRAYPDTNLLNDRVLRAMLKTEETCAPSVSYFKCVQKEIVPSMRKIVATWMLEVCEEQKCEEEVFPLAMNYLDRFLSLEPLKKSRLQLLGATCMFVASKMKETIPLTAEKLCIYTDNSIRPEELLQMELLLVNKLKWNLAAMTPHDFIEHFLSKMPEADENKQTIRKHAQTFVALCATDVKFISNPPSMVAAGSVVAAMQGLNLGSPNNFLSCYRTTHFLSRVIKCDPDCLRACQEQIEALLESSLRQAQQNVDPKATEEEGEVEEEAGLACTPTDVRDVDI
Cyclin-dependent kinase 4/G1/S-specific cyclin-D1, sequence (P30285 whole entry): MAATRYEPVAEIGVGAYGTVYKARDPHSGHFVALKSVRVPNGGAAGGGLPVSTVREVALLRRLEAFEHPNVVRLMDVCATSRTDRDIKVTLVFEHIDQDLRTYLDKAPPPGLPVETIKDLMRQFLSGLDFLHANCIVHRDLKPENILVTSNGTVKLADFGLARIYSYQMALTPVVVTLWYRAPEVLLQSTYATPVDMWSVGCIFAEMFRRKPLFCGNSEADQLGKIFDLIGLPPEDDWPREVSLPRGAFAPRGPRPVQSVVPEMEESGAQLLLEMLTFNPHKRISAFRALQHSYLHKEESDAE

Structure (SMILES): Cc1ccc(F)c(C(=O)n2nc(Nc3ccc(S(N)(=O)=O)cc3)nc2N)c1F [4-({5-amino-1-[(2,6-difluoro-3-methylphenyl)carbonyl]-1H-1,2,4-triazol-3-yl}amino)benzene-1-sulfonamide]
- IC50 [1]: 190 nM
- IC50 [2]: 0.3 nM
- IC50 [3]: 8 nM
- IC50 [4]: 510 nM

Structure (SMILES): Nc1nc(Nc2ccc(S(N)(=O)=O)cc2)nn1C(=O)c1c(F)ccc(F)c1F [4-[[5-Amino-1-(2,3,6-trifluorobenzoyl)-1H-1,2,4-triazol-3-yl]amino]-benzenesulfonamide]
- IC50 [3]: 3.2 nM
